System: Aβ peptide naturally expressed by HEK 293 cells
Assay: Acid urea gel / western blot analysis of Aβ peptide in purified antibody from HEK 293 cell culture with γ-secretase inhibitor
Type: cell-based, human
Conditions: for FL (Full length hAβ40) / T2 (N-terminal truncated hAβ40, #2): no-inhibitor control 70; for T1 (N-terminal truncated hAβ40, #1): no-inhibitor control 38; for Total hAβ40: no-inhibitor control 178
Description: A γ-secretase inhibitor, [drawing 1] (WO 98/28268), is added to the HEK 293 cell culture in which an anti-Aβ antibody is being expressed to reduce the amount of Aβ peptide naturally expressed by cells. Cell culture samples for this example include a control culture with no inhibitor added, a culture in which 1 nM inhibitor is added at time=0 and every 24 hours thereafter for 5 days (for a 5 day transfection), and a culture in which 1 nM inhibitor is added at time=0. These samples are purified using a Protein A column as well as size exclusion chromatography. The samples are analyzed for Aβ peptide content by acid-urea gel separation and subsequent western blot analysis as detailed below.
The following protocol describes a technique for formic acid denaturation of samples and subsequent electrophoresis through an acid-urea polyacrylamide matrix:
• 1) Clean and assemble acrylamide gel plates for casting. For example, Hoeffer plates into a casting stand (16 cm×14 cm plates with 1.5 mm spacers). Clean plates thoroughly with detergent, rinse in distilled H2O(dH2O), rinse with acetone, and finally rinse with 100% EtOH. • 2) Mark plates at 10 cm (22% separating gel) and 11.75 cm (10% step gel). Making the Gel and Gel Concentrations • 1) Acrylamide (40% solution, such as pre-made Bio-Rad/cat#161-0148)
• Add urea, acrylamide, glacial acetic acid (GAA), and dH2O into 50 mL conical tubes. Vortex briefly and incubate in a 55° C. water bath. Vortex every few minutes until the urea is completely in solution. Degas 22% and 10% solutions and place solutions on ice, leaving the 4% stacker in the water bath. Pouring the Gel (at Room Temperature) • 1) Add N,N,N′,N′-tetramethylethylenediamine (TEMED) to the 22% solution and gently invert several times to mix. Next add the 10% APS (ammonium persulfate) and invert several times. Using a 25 mL pipette, slowly pour solution between the plates until it reaches the 10 cm mark. • 2) Carefully add a 750 μL overlay of 5% GAA. Use a P1000 pipette to very slowly let the 5% GAA run down one side of the glass plates onto the 22% resolving gel. • 3) Allow to polymerize at room temperature for at least 1 hour. • 4) Add the TEMED and 10% APS to the 10%-acrylamide solution in the same manner as for the 22%. Remove the overlay and add the solution until reaching the second mark at 11.75 cm. Again, carefully pour a 750 μL overlay of 5% GAA as above. Allow the gel to polymerize for 30 minutes. • 5) Prior to adding the 4% stacker solution, place the gel stand in a 37° C. incubator for 15 minutes to warm gels. This aids in the wells polymerizing correctly. Degas the 4% stacker solution and keep at 55° C. Remove the overlay. Add the TEMED, invert several times, and then add the 10% APS. Quickly pour this solution and insert a clean-dry 12-well comb (or a 15-well comb). After pouring the stacker, place the stand back in the incubator for 15 minutes then remove. Allow to polymerize on the bench top. The stacker will take at least 1.5 hours to polymerize completely. • *Note: During the polymerization steps, air pockets may appear in the resolving gel. These pockets form due to the change in temperature of the gel during and after polymerization. […] Sample Preparation • Analysis upwards of 3 mg of protein in a single lane will achieve reasonable band results. Conditions for analyzing protein are as follows.
Sample: • 30 μL of […] protein (maximum concentration of protein) • 80 μL formic acid (98%) (ICN cat#15162-90) • 20 μL Acid Loading Buffer (80% formic acid, 60% sucrose and 0.02% methyl green; • Make buffer by dissolving 6 g sucrose in ˜8 mL of ˜99% formic acid. Heat and agitate the mixture. After the sucrose has dissolved, the volume of the solution is adjusted to 10 mL with ˜99% formic acid. Add 2 μL of 1% methyl green solution.) • 1 μl β-Mercaptoethanol • *Note: Adjust volumes as needed. […]

[1] = HEK 293 culture, 1 nM inhibitor added at time=0 only
[2] = HEK 293 culture, 1 nM inhibitor at time=0 and every 24 hours for 5 days

Compound: C[C@H](NC(=O)[C@@H](O)c1cc(F)cc(F)c1)C(=O)N[C@@H]1C(=O)N(C)c2ccccc2-c2ccccc21 [Inhibitor]
- FL (Full length hAβ40) (HEK 293 culture expressing anti-Aβ antibody, 1 nM inhibitor added at time=0 and every 24 hours for 5 days): 4 pg/μg IgG
- T1 (N-terminal truncated hAβ40, #1) [1]: 27 pg/μg IgG
- FL (Full length hAβ40) [1]: 56 pg/μg IgG
- T2 (N-terminal truncated hAβ40, #2) [1]: 52 pg/μg IgG
- Total hAβ40 [1]: 135 pg/μg IgG
- T1 (N-terminal truncated hAβ40, #1) [2]: 0 pg/μg IgG
- T2 (N-terminal truncated hAβ40, #2) [2]: 3 pg/μg IgG
- Total hAβ40 [2]: 7 pg/μg IgG

Source: US20070190046A1, “Anti-abeta antibody” (Eli Lilly and Company, priority 2004, published 2007)
